Test results published in US7655696B2, “Anti-tumor composition” (Ajinomoto Co., Inc., priority 1998, dated 2010).
Entries after “also recorded” stand apart in the source; their conditions may differ. Like-named read-outs stand apart in the source and are kept apart here.

How the values were obtained:
[1] = test system: colonic tumor of mouse, colon 26; experiment: Antitumor Activity Tests (2) and (3): complete regression of colon 26 tumor in CDF1 mice (Example 2); assay type: in vivo; conditions: palpation on 60th day
Method: (§1) Stilbene derivatives of formulas (3), (4) and (5), and Cisplatin and Carboplatin were bolusly injected into the tail vein on the 7th, 11th and 15th days as described in Tables 3 through 6 below.
Antitumor effects: Complete regression of the colonic tumor was determined by palpation. Subjects in which the tumor had not been ascertained by palpation on the 60th day were deemed to have their tumors completely cured.
(§2) The terms: [+CBDCA] and [+CDDP] indicate that 50 mg/kg/day of carboplatin or 5 mg/kg/day of cisplatin were administered, respectively. The terms: [−CBDCA] and [−CDDP] indicate that no carboplatin or cisplatin were administered. The dosages of cisplatin and carboplatin denote the maximum dosages without death due to toxicity in the administration schedule in the present embodiment.

[2] = Safety Tests (2) and (3): rate of body weight change in colon 26 tumor-bearing CDF1 mice (Example 2); assay type: in vivo; conditions: 21st day vs 7th day
Method: as §1, §2
Body weight change on the 21st day was calculated using the equation described in Example 1.

[3] = test system: murine colonic tumor, colon 26; experiment: Antitumor Activity Test (1): complete regression of colon 26 tumor in CDF1 mice (Example 1); assay type: in vivo; conditions: for Number of instances of complete regression of tumors: palpation on 60th day; for Complete regression (curing) of tumors in mice, in words: in combination with Cisplatin
Method: Antitumor effects: Complete regression of the colonic tumor was determined by palpation. Subjects in which the tumor has not been ascertained by palpation on the 60th day were deemed to have their tumors cured completely.

[4] = for Rate of Body Weight Change: 21st day vs 7th day; for Body weight decrease, in words: in combination with Cisplatin
Method: Methodology. 10 mg of a murine colonic tumor, colon 26, was inoculated under the skin of the back of CDF1 mice (day 0). After one week, the tumor was measured to calculate the volume of the tumor and the mice were classified into several groups (each group: n=5) and administration of the stilbene derivative and Cisplatin was started. On days 7, 11 and 15, the tumor-inoculated mice were bolusly injected under the skin of their backs and into their tail veins with 1 mg of the stilbene derivative of formula (3) in 1 ml of physiological saline solution and 0.5 mg of Cisplatin (“randa Inj”) in a volume of 1 ml. Control and comparative groups of mice were similarly injected with the other drug combinations described in Table 1. The comparative drug Vindesine is an antitumor drug used in combination with Cisplatin by Garalla et al. VP-16 is also a chemotherapeutic drug which is often used clinically in combination with Cisplatin.
As indicated in Table 1 the term [−CDDP] means that Cisplatin was not administered at all. The term [+CDDP] means that Cisplatin was administered in an amount of 5 mg/kg/day. The term [n.d.] means that no testing was performed.
Safety. The rate of body weight change was used as a measure of safety as significant loss of body weight is undesirable in cancer patients. Body weight change was calculated using the following equation: Rate of body weight change (%)=[{(body weight−weight of the tumor) at the 21st day}−{(body weight−weight of the tumor) at the 7th day}]/{body weight−weight of the tumor) at the 7th day}×100.
Using the above equation, the rate of body weight change at the 21st day was calculated.

[5] = Solubility in water (statement)
[6] = Control, +CBDCA: carboplatin alone 50 mg/kg/day
[7] = +CDDP (cisplatin 5 mg/kg/day), sample 5 mg/kg/day
[8] = Control, +CDDP: cisplatin alone 5 mg/kg/day

## [NH2][Pt]1([NH2])[O]C(=O)C2(CCC2)C(=O)[O]1 [CBDCA, diammine(1,1-cyclobutane dicarboxylate) platinum (II), reference compound]
[1]; [6]
  Number of instances of complete regression of tumors: 0/6
[2]; [6]
  Rate of Body Weight Change: −9.6%

## CC[C@]1(O)C[C@@H]2CN(CCc3c([nH]c4ccccc34)[C@@](C(=O)OC)(c3cc4c(cc3OC)N(C)[C@H]3[C@@](O)(C(N)=O)[C@H](O)[C@]5(CC)C=CCN6CC[C@]43[C@@H]65)C2)C1 [Vindesine]
[3]; +CDDP (Cisplatin 5 mg/kg/day), sample 2 mg/kg/day on days 7, 11, 15
  Number of instances of complete regression of tumors: 0/5
[3]
  Complete regression (curing) of tumors in mice, in words: complete curing of tumors in mice has not been observed; also recorded: complete tumor regression was not observed

## COc1ccc(/C=C\c2cc(OC)c(OC)c(OC)c2)cc1N [Compound (5)]
[1]; +CDDP (cisplatin 5 mg/kg/day), sample 20 mg/kg/day, tail vein, 7th, 11th, 15th days
  Number of instances of complete regression of tumors: 6/6
[1]; −CDDP, sample 20 mg/kg/day, tail vein, 7th, 11th, 15th days
  Number of instances of complete regression of tumors: 0/6
[2]; +CDDP (cisplatin 5 mg/kg/day), sample 20 mg/kg/day
  Rate of Body Weight Change: −0.3%
[2]; −CDDP, sample 20 mg/kg/day
  Rate of Body Weight Change: −2.1%

## COc1ccc(/C=C(/C#N)c2cc(OC)c(OC)c(OC)c2)cc1N [Compound (4)]
[1]; +CDDP (cisplatin 5 mg/kg/day), sample 5 mg/kg/day, tail vein, 7th, 11th, 15th days
  Number of instances of complete regression of tumors: 4/6
[1]; −CDDP, sample 5 mg/kg/day, tail vein, 7th, 11th, 15th days
  Number of instances of complete regression of tumors: 0/6
[2]; [7]
  Rate of Body Weight Change: −13.9%
[2]; −CDDP, sample 5 mg/kg/day
  Rate of Body Weight Change: −7.0%

## N.N.[Cl][Pt][Cl] [CDDP, cis-diamminedichloroplatinum (II), reference compound]
[3]; Control, +CDDP: Cisplatin alone 5 mg/kg/day on days 7, 11, 15
  Number of instances of complete regression of tumors: 0/5
[4]; [8]
  Rate of Body Weight Change: −11.1%
[1]; [8]
  Number of instances of complete regression of tumors: 0/6
[2]; [8]
  Rate of Body Weight Change: −11.4%

## COc1cc([C@@H]2c3cc4c(cc3[C@@H](O[C@@H]3O[C@@H]5CO[C@@H](C)O[C@H]5[C@H](O)[C@H]3O)[C@H]3COC(=O)[C@H]23)OCO4)cc(OC)c1O [VP-16, reference compound]
[3]; +CDDP (Cisplatin 5 mg/kg/day), sample 30 mg/kg/day on days 7, 11, 15
  Number of instances of complete regression of tumors: 0/5
[3]
  Complete regression (curing) of tumors in mice, in words: complete tumor regression was not observed
[3]; −CDDP, sample 30 mg/kg/day on days 7, 11, 15
  Number of instances of complete regression of tumors: 0/5
[4]; +CDDP (Cisplatin 5 mg/kg/day), sample 30 mg/kg/day
  Rate of Body Weight Change: −9.9%
[4]
  Body weight decrease, in words: high rates of body weight loss
[4]; −CDDP, sample 30 mg/kg/day
  Rate of Body Weight Change: −1.0%

## COc1ccc(/C=C\c2cc(OC)c(OC)c(OC)c2)cc1NC(=O)C(N)CO [Compound (3), (Z)-1-(3-amino-4-methoxyphenyl)-2-(3,4,5-trimethoxyphenyl)-ethene-L-serine amide]
[3]; +CDDP (Cisplatin 5 mg/kg/day), sample 5 mg/kg/day on days 7, 11, 15
  Number of instances of complete regression of tumors: 1/5
[3]; +CDDP (Cisplatin 5 mg/kg/day), sample 10 mg/kg/day on days 7, 11, 15
  Number of instances of complete regression of tumors: 4/5
[3]; −CDDP, sample 10 mg/kg/day on days 7, 11, 15
  Number of instances of complete regression of tumors: 0/5
[4]; +CDDP (Cisplatin 5 mg/kg/day), sample 10 mg/kg/day
  Rate of Body Weight Change: −1.9%
[4]; [7]
  Rate of Body Weight Change: −4.2%
[4]
  Body weight decrease, in words: did not cause significant decreases in body weight
[4]; −CDDP, sample 10 mg/kg/day, tumor weight subtracted
  Rate of Body Weight Change: −7.7%
[1]; +CBDCA (carboplatin 50 mg/kg/day), sample 20 mg/kg/day, tail vein, 7th, 11th, 15th days
  Number of instances of complete regression of tumors: 1/6
[1]; −CBDCA, sample 20 mg/kg/day, tail vein, 7th, 11th, 15th days
  Number of instances of complete regression of tumors: 0/6
[2]; +CBDCA (carboplatin 50 mg/kg/day), sample 20 mg/kg/day
  Rate of Body Weight Change: 1.8%
[2]; −CBDCA, sample 20 mg/kg/day
  Rate of Body Weight Change: −7.4%
[5]
  Solubility in water, in words: soluble in water
